Reference: patent publication US20060247227A1, “Substituted piperidines as histamine h3 receptor ligands” (priority 2003, published 2006)
Counter-ions that a name gives are not always drawn.

These molecules were tested against T1, histamine H3 receptor (Homo sapiens, UniProt Q9Y5N1) (assay: Histamine H3 functional antagonist assay ([35S]GTPγS, SPA, membranes of CHO K1 cells expressing the receptor)). Conditions: histamine-stimulated GTPγS binding, membranes with human H3.
T1 construct: expressed in transfected cells; host or cells: CHO K1 cells carrying pSwitch, transfected with pGeneH3 and induced with mifepristone; clone 3H3; membranes
T1 sequence (Q9Y5N1 whole entry): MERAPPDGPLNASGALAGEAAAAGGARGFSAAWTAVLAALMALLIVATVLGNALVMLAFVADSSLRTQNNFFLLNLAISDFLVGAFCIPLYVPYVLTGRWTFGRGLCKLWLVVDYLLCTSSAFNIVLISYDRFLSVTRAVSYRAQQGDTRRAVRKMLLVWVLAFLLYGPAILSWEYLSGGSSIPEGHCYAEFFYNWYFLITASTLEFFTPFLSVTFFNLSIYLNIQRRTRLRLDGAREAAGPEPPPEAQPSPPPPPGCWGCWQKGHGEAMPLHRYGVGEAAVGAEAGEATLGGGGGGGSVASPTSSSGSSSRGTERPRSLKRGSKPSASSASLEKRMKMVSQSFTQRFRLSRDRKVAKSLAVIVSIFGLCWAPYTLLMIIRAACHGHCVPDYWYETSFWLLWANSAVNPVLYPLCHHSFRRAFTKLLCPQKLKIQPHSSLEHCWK
Assay type: biochemical
Text: A membrane preparation containing histamine H3 receptors may be prepared in accordance with the following procedures:
(i) Generation of Histamine H3 Cell Line
DNA encoding the human histamine H3 gene (Huvar, A. et al. (1999) Mol. Pharmacol. 55(6), 1101-1107) was cloned into a holding vector, pCDNA3.1 TOPO (InVitrogen) and its cDNA was isolated from this vector by restriction digestion of plasmid DNA with the enzymes BamH1 and Not-1 and ligated into the inducible expression vector pGene (InVitrogen) digested with the same enzymes. The GeneSwitch™ system (a system where in transgene expression is switched off in the absence of an inducer and switched on in the presence of an inducer) was performed as described in U.S. Pat. Nos. 5,364,791; 5,874,534; and 5,935,934. Ligated DNA was transformed into competent DH5α E. coli host bacterial cells and plated onto Luria Broth (LB) agar containing Zeocin™ (an antibiotic which allows the selection of cells expressing the sh ble gene which is present on pGene and pSwitch) at 50 μg ml^−1. Colonies containing the re-ligated plasmid were identified by restriction analysis. DNA for transfection into mammalian cells was prepared from 250 ml cultures of the host bacterium containing the pGeneH3 plasmid and isolated using a DNA preparation kit (Qiagen Midi-Prep) as per manufacturers guidelines (Qiagen).
CHO K1 cells previously transfected with the pSwitch regulatory plasmid (InVitrogen) were seeded at 2×10e6cells per T75 flask in Complete Medium, containing Hams F12 (GIBCOBRL, Life Technologies) medium supplemented with 10% v/v dialysed foetal bovine serum, L-glutamine, and hygromycin ([…]), 24 hours prior to use. Plasmid DNA was transfected into the cells using Lipofectamine plus according to the manufacturers guidelines (InVitrogen). 48 hours post transfection cells were placed into complete medium supplemented with […] Zeocin™.
10-14 days post selection 10 nM Mifepristone (InVitrogen), was added to the culture medium to induce the expression of the receptor. 18 hours post induction cells were detached from the flask using ethylenediamine tetra-acetic acid (EDTA; 1:5000; InVitrogen), following several washes with phosphate buffered saline pH 7.4and resuspended in Sorting Medium containing Minimum Essential Medium (MEM), without phenol red, and supplemented with Earles salts and 3% Foetal Clone II (Hyclone). Approximately 1×10e7 cells were examined for receptor expression by staining with a rabbit polyclonal antibody, 4a, raised against the N-terminal domain of the histamine H3 receptor, incubated on ice for 60 minutes, followed by two washes in sorting medium. Receptor bound antibody was detected by incubation of the cells for 60 minutes on ice with a goat anti rabbit antibody, conjugated with Alexa 488 fluorescence marker (Molecular Probes). Following two further washes with Sorting Medium, cells were filtered through a 50 μm Filcon™ (BD Biosciences) and then analysed on a FACS Vantage SE Flow Cytometer fitted with an Automatic Cell Deposition Unit. Control cells were non-induced cells treated in a similar manner. Positively stained cells were sorted as single cells into 96-well plates, containing Complete Medium containing 500 μg ml^−1 Zeocin™ and allowed to expand before reanalysis for receptor expression via antibody and ligand binding studies. One clone, 3H3, was selected for membrane preparation.
(ii) Membrane Preparation from Cultured Cells
All steps of the protocol are carried out at 4° C. and with pre-cooled reagents. The cell pellet is resuspended in 10 volumes of buffer A2 containing 50 mM N-2-hydroxyethylpiperazine-N′-2-ethanesulfonic acid (HEPES) (pH 7.40) supplemented with […] leupeptin (acetyl-leucyl-leucyl-arginal; Sigma L2884), 25 μg/ml bacitracin (Sigma B0125), 1 mM ethylenediamine tetra-acetic acid (EDTA), 1 mM phenylmethylsulfonyl fluoride (PMSF) and 2×10e-6M pepstain A (Sigma). […]

Row | SMILES | Ki [nM]
1 | CC(C)N1CCC(OC2CCN(c3ccc(C#N)cn3)CC2)CC1 [Example E1, 6-(4-([1-(1-Methylethyl)-4-piperidinyl]oxy}-1-piperidinyl)-3-pyridinecarbonitrile hydrochloride] | < 10
2 | N#Cc1ccc(N2CCC(OC3CCN(C4CCC4)CC3)CC2)nc1 [Example E2, 6-{4-[(1-Cyclobutyl-4-piperidinyl)oxy]-1-piperidinyl}-3-pyridinecarbonitrile hydrochloride] | ≤ 1
3 | CC(C)N1CCC(OC2CCN(c3ccc(C#N)cc3)CC2)CC1 [Example E4, 4-(4-{[1-(1-Methylethyl)-4-piperidinyl]oxy}-1-piperidinyl)benzonitrile hydrochloride] | ≤ 1
4 | O=C(c1ccc(N2CCC(OC3CCN(C4CCC4)CC3)CC2)cc1)N1CCOCC1 [Example E5, 4-[(4-{4-[(1-Cyclobutyl-4-piperidinyl)oxy]-1-piperidinyl}phenyl)carbonyl]morpholine hydrochloride] | ≤ 1
5 | CNC(=O)c1ccc(N2CCC(OC3CCN(C4CCC4)CC3)CC2)cc1 [Example E6, 4-[4-[(1-Cyclobutyl-4-piperidinyl)oxy]-1-piperidinyl)-N-methylbenzamide hydrochloride] | ≤ 1
6 | O=C(c1ccc(N2CCC(OC3CCN(C4CCC4)CC3)CC2)cc1)N1CCCC1 [Example E11] | ≤ 1
7 | CC(C)N1CCC(OC2CCN(c3ccc(C(=O)N(C)C)cc3)CC2)CC1 [Example E12] | ≤ 1
8 | CN(C)C(=O)c1ccc(N2CCC(OC3CCN(C4CCC4)CC3)CC2)cc1 [Example E13] | ≤ 1
9 | CNC(=O)c1ccc(N2CCC(OC3CCN(C(C)C)CC3)CC2)cc1 [Example E14] | < 10
10 | O=C(NCCCCl)c1ccc(N2CCC(OC3CCN(C4CCC4)CC3)CC2)cc1 [Example E15, N-(3-Chloropropyl)-4-{4-[(1-cyclobutyl-4-piperidinyl)oxy]-1-piperidinyl}benzamide hydrochloride] | ≤ 1
11 | Cc1nc(-c2ccc(N3CCC(OC4CCN(C(C)C)CC4)CC3)cc2)co1 [Example E18] | < 10
12 | c1coc(-c2ccc(N3CCC(OC4CCN(C5CCC5)CC4)CC3)cc2)n1 [Example E21] | ≤ 1
13 | Cc1cc(-c2ccc(N3CCC(OC4CCN(C(C)C)CC4)CC3)cc2)on1 [Example E23] | ≤ 1
14 | Cc1cc(-c2ccc(N3CCC(OC4CCN(C5CCC5)CC4)CC3)cc2)on1 [Example E24] | ≤ 1
15 | c1ccc(-c2nnc(-c3ccc(N4CCC(OC5CCN(C6CCC6)CC5)CC4)cc3)o2)cc1 [Example E27] | ≤ 1
16 | c1ncc(-c2ccc(N3CCC(OC4CCN(C5CCC5)CC4)CC3)cc2)o1 [Example E29] | ≤ 1

Row | SMILES | Ki [nM]
17 | CC(C)N1CCC(OC2CCN(c3ccc(-c4cnco4)cc3)CC2)CC1 [Example E30] | ≤ 1
18 | CN(C)C(=O)c1ccc(N2CCC(OC3CCN(C4CCC4)CC3)CC2)cn1 [Example E31, 5-{4-[(1-Cyclobutyl-4-piperidinyl)oxy]-1-piperidinyl}-N,N-dimethyl-2-pyridinecarboxamide hydrochloride] | ≤ 1
19 | CC(C)N1CCC(OC2CCN(c3ccc(C(=O)N(C)C)nc3)CC2)CC1 [Example E32] | ≤ 1
20 | CC(C)N1CCC(OC2CCN(c3ccc(C(=O)N4CCCCC4)nc3)CC2)CC1 [Example E34] | ≤ 1
21 | O=C(c1ccc(N2CCC(OC3CCN(C4CCC4)CC3)CC2)cn1)N1CCCCC1 [Example E35] | ≤ 1
22 | O=C(c1ccc(N2CCC(OC3CCN(C4CCC4)CC3)CC2)cn1)N1CCOCC1 [Example E37] | ≤ 1
23 | CCNC(=O)c1ccc(N2CCC(OC3CCN(C(C)C)CC3)CC2)cn1 [Example E39] | ≤ 1
24 | CCCNC(=O)c1ccc(N2CCC(OC3CCN(C(C)C)CC3)CC2)cn1 [Example E41] | ≤ 1
25 | O=C(NC1CCCC1)c1ccc(N2CCC(OC3CCN(C4CCC4)CC3)CC2)cn1 [Example E46] | ≤ 1
26 | N#Cc1ccc(N2CCC(OC3CCN(C4CCC4)CC3)CC2)cn1 [Example E47, 5-{4-[(1-Cyclobutyl-4-piperidinyl)oxy]-1-piperidinyl}-2-pyridinecarbonitrile hydrochloride] | ≤ 1
27 | CC(=O)c1ccc(N2CCC(OC3CCN(C4CCC4)CC3)CC2)cc1 [Example E48, 1-(4-{4-[(1-Cyclobutyl-4-piperidinyl)oxy]-1-piperidinyl}phenyl)ethanone hydrochloride] | < 0.316
28 | FC(F)(F)c1ccc(N2CCC(OC3CCN(C4CCC4)CC3)CC2)cn1 [Example E49, 5-{4-[(1-Cyclobutyl-4-piperidinyl)oxy]-1-piperidinyl}-2-(trifluoromethyl)pyridine hydrochloride] | ≤ 1
29 | CC(C)N1CCC(OC2CCN(c3ccc(C(=O)N4CCCC4)cn3)CC2)CC1 [Example E52] | < 10
30 | CC(C)N1CCC(OC2CCN(c3ccc(C(=O)N4CCOCC4)cn3)CC2)CC1 [Example E53] | < 10
31 | CNC(=O)c1ccc(N2CCC(OC3CCN(C4CCC4)CC3)CC2)nc1 [Example E54] | ≤ 1

Now from value to molecule:

Row | Ki [nM] | SMILES
32 | ≤ 1 | N#Cc1ccc(N2CCC(OC3CCN(C4CCC4)CC3)CC2)cc1 [Example E3, 4-{4-[(1-Cyclobutyl-4-piperidinyl)oxy]-1-piperidinyl}benzonitrile hydrochloride]
33 | ≤ 1 | CC(C)N1CCC(OC2CCN(c3ccc(C(=O)N4CCOCC4)cc3)CC2)CC1 [Example E7]
34 | ≤ 1 | CC(C)N1CCC(OC2CCN(c3ccc(C(=O)N4CCCCC4)cc3)CC2)CC1 [Example E8]
35 | ≤ 1 | CC(C)N1CCC(OC2CCN(c3ccc(C(=O)N4CCCC4)cc3)CC2)CC1 [Example E10]
36 | ≤ 1 | Cc1nc(-c2ccc(N3CCC(OC4CCN(C5CCC5)CC4)CC3)cc2)co1 [Example E16, 1-Cyclobutyl-4-({1-[4-(2-methyl-1,3-oxazol-4-yl)phenyl]-4-piperidinyl}oxy)piperidine hydrochloride]
37 | < 0.316 | Cc1noc(-c2ccc(N3CCC(OC4CCN(C(C)C)CC4)CC3)cc2)n1 [Example E17, 1-(1-Methylethyl)-4-({1-[4-(3-methyl-1,2,4-oxadiazol-5-yl)phenyl]-4-piperidinyl}oxy)piperidine hydrochloride]
38 | < 10 | CC(C)N1CCC(OC2CCN(c3ccc(-c4ncco4)cc3)CC2)CC1 [Example E19]
39 | < 10 | Cc1ncc(-c2ccc(N3CCC(OC4CCN(C(C)C)CC4)CC3)cc2)o1 [Example E20]
40 | ≤ 1 | Cc1ncc(-c2ccc(N3CCC(OC4CCN(C5CCC5)CC4)CC3)cc2)o1 [Example E22]
41 | ≤ 1 | Cc1nc(-c2ccc(N3CCC(OC4CCN(C5CCC5)CC4)CC3)cc2)no1 [Example E25]
42 | ≤ 1 | CC(C)N1CCC(OC2CCN(c3ccc(-c4nnc(-c5ccccc5)o4)cc3)CC2)CC1 [Example E26]
43 | ≤ 1 | Cc1noc(-c2ccc(N3CCC(OC4CCN(C5CCC5)CC4)CC3)cc2)n1 [Example E28]
44 | ≤ 1 | CC(C)N1CCC(OC2CCN(c3ccc(C(=O)N4CCCC4)nc3)CC2)CC1 [Example E33]
45 | ≤ 1 | CC(C)N1CCC(OC2CCN(c3ccc(C(=O)N4CCOCC4)nc3)CC2)CC1 [Example E36]
46 | < 0.316 | CNC(=O)c1ccc(N2CCC(OC3CCN(C4CCC4)CC3)CC2)cn1 [Example E38, 5-{4-[(1-Cyclobutyl-4-piperidinyl)oxy]-1-piperidinyl}-N-methyl-2-pyridinecarboxamide hydrochloride]
47 | ≤ 1 | CC(C)N1CCC(OC2CCN(c3ccc(C(=O)NC4CCCC4)nc3)CC2)CC1 [Example E45]
48 | < 10 | CNC(=O)c1ccc(N2CCC(OC3CCN(C(C)C)CC3)CC2)nc1 [Example E50]
49 | < 10 | CC(C)N1CCC(OC2CCN(c3ccc(C(=O)N(C)C)cn3)CC2)CC1 [Example E51]
50 | ≤ 1 | CN(C)C(=O)c1ccc(N2CCC(OC3CCN(C4CCC4)CC3)CC2)nc1 [Example E55]
